Among the data in patent US6777431B2, “Non-convalent thrombin inhibitors” (Corvas International, Inc., priority 2001, dated 2004) are IC50 and Ki values, retold here.

The IC50 is the midpoint of a concentration-inhibition curve. A low value points to inhibition by little substance. A word on the Ki: it is a measure of affinity in units of concentration, obtained from inhibition or displacement.

The first experiment concerns the target T1, Trypsin (Bos taurus, UniProt P00760).
T1 construct: Purified (3×-crystallized; TRL3) bovine pancreatic trypsin was obtained from Worthington Biochemical Corp; purchased Worthington Biochemical Corp. TRL3; host or cells: bovine pancreas
T1 sequence (P00760 24-246): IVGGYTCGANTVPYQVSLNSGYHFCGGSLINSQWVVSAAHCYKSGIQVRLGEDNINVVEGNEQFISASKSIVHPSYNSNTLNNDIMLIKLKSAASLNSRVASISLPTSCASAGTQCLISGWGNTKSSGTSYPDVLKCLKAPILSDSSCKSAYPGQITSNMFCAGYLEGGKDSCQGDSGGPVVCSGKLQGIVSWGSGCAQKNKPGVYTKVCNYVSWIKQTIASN
As to the kind of experiment: Trypsin chromogenic substrate assay (S-2222). Particulars: bovine pancreatic trypsin 0.5 nM, S-2222 250 μM, HBSA pH 7.5. It counts as biochemical. As for the experimental part:
(§1) The ability of compounds of the present invention to act as a selective inhibitor of thrombin activity was assessed by determining the concentration of test-compound which inhibited the activity of this enzyme by 50%, (IC50) or by determining the Ki value, and comparing this value to that determined for all or some of the following related serine proteases: recombinant tissue plasminogen activator (rt-PA), plasmin, activated protein C, chymotrypsin, factor Xa and trypsin. Ki is calculated from the IC50.
(§2) The buffer used for all assays was HBSA (10 mM HEPES, pH 7.5, 150 mM sodium chloride, 0.1% bovine serum albumin).
The assay for IC50 or Ki determinations was conducted by combining in appropriate wells of a Corning microtiter plate, 50 microliters of HBSA, 50 microliters of the test compound at a specified concentration (covering a broad concentration range) diluted in HBSA (or HBSA alone for V0 (uninhibited velocity) measurement), and 50 microliters of the enzyme diluted in HBSA. […] The initial velocity of chromogenic substrate hydrolysis was measured by the change in absorbance at 405 nm using a Thermo Max® Kinetic Microplate Reader over a 5 minute period in which less than 5% of the added substrate was utilized. […] Ki may be calculated from the IC50 value. […]
As for `Cc1ccc(NS(=O)(=O)Cc2ccccc2)c(=O)n1CCCNc1ccncc1` [A], the IC50 fell in the range of 0.3 to 2.5 µM.

Another experiment addresses Thrombin (Homo sapiens, UniProt P00734). As to the kind of experiment: Thrombin (fIIa) chromogenic substrate assay (Pefachrome t-PA). Format: biochemical. Particulars: human a-thrombin 0.5 nM, Pefachrome t-PA 250 μM, 30 min preincubation, HBSA pH 7.5; Ki calculated from the IC50. As to the method:
as §1, §2
The assay for IC50 or Ki determinations was conducted by combining in appropriate wells of a Corning microtiter plate, 50 microliters of HBSA, 50 microliters of the test compound at a specified concentration (covering a broad concentration range) diluted in HBSA (or HBSA alone for V0 (uninhibited velocity) measurement), and 50 microliters of the enzyme diluted in HBSA. Following a 30 minute incubation at ambient temperature, 50 microliters of the substrate at the concentrations specified below were added to the wells, yielding a final total volume of 200 microliters. The initial velocity of chromogenic substrate hydrolysis was measured by the change in absorbance at 405 nm using a Thermo Max® Kinetic Microplate Reader over a 5 minute period in which less than 5% of the added substrate was utilized. The concentration of added inhibitor which caused a 50% decrease in the initial rate of hydrolysis was defined as the IC50 value. Ki may be calculated from the IC50 value.
Enzyme activity was determined using the chromogenic substrate, Pefachrome t-PA (CH3SO2-D-hexahydrotyrosine-glycyl-L-Arginine-p-nitroaniline, obtained from Pentapharm Ltd.). The substrate was reconstituted in deionized water prior to use.
The initial velocity of Pefachrome t-PA hydrolysis was measured by the change in absorbance at 405 nm using a Thermo Max® Kinetic Microplate Reader over a 5 minute period in which less than 5% of the added substrate was utilized. The concentration of added inhibitor which caused a 50% decrease in the initial rate of hydrolysis was defined as the IC50 value. Ki was calculated from the IC50 value.
As to `Cc1ccc(NS(=O)(=O)Cc2ccccc2)c(=O)n1CCCNc1ccc(N)nc1` [N], the Ki is 0.1 to 0.3 µM.
As for `Cc1ccc(NS(=O)(=O)Cc2ccccc2)c(=O)n1CCCNc1ccncc1` [A], the inhibitory constant (Ki) was ≤ 0.1 µM.
Same read-out and setting: to `Cc1ccc(NS(=O)(=O)Cc2ccccc2)c(=O)n1CCCNc1cccc2ncccc12` [P] belongs 0.1 to 0.3 µM; to `Cc1ccc(NS(=O)(=O)Cc2ccccc2)c(=O)n1CCCN(C)c1ccncc1` [E], ≤ 0.1 µM.
Regarding `Cc1ccc(NS(=O)(=O)Cc2ccccc2)c(=O)n1CCCNc1ccncc1F` [J], the Ki was ≤ 0.1 µM.
Consider `Cc1cnc(NCC(F)(F)c2ccccc2)c(=O)n1CCCNc1ccncc1` [C], for which the Ki was ≤ 0.1 µM.
On the same count and under the same terms, to `Cc1ccc(NS(=O)(=O)Cc2ccccc2)c(=O)n1CCCNc1ccnc2ccccc12` [L] belongs ≤ 0.1 µM; to `Cc1ccc(NS(=O)(=O)Cc2ccccc2)c(=O)n1CCCNc1ccc2ncccc2c1` [H], ≤ 0.1 µM; to `Cc1ccc(NS(=O)(=O)Cc2ccc(Cl)cc2)c(=O)n1CCCNc1ccncc1` [F], ≤ 0.1 µM.
Still for that read-out and setting: to `Cc1ccc(NS(=O)(=O)Cc2ccccc2)c(=O)n1CCCn1ncc2ccc(N)cc21` [Q] belongs 0.3 to 2.5 µM; to `Cc1ccc(NS(=O)(=O)Cc2ccc(Cl)cc2)c(=O)n1CCCNc1ccncc1F` [K], ≤ 0.1 µM.
Same read-out and setting: next, `Cc1cnc(NCCCc2ccccc2)c(=O)n1CCCNc1ccncc1` [O]: 0.1 to 0.3 µM; `Cc1ccc(NS(=O)(=O)Cc2ccccc2)c(=O)n1CCCNc1ccc2cc[nH]c2c1` [I]: ≤ 0.1 µM.
On to `Cc1cnc(NCCc2ccccc2)c(=O)n1CCCNc1ccncc1` [D], for which the Ki is 0.1 to 0.3 µM.
Still for that read-out and setting: next, `Cc1ccc(NS(=O)(=O)Cc2ccccc2)c(=O)n1CCCNc1ncnc2[nH]cnc12` [G]: 0.1 to 0.3 µM.
Still for that read-out and setting: next, `Cc1cnc(NCC(F)(F)c2ccccc2)c(=O)n1CCNc1ccncc1` [B]: ≤ 0.1 µM; `Cc1ccc(NS(=O)(=O)Cc2ccccc2)c(=O)n1CCCNc1cccc(N)n1` [R]: 0.3 to 2.5 µM; `Cc1ccc(NS(=O)(=O)Cc2ccccc2)c(=O)n1CCCNc1ccncn1` [M]: ≤ 0.1 µM.
